The record followed here is PubChem BioAssay AID720632 (Broad Institute, 2013).

The structures appear in SMILES notation. The source made the active and inactive calls. The rule behind the calls is not given here.

For the first test, the target named is Caspase-6 (Homo sapiens) (UniProt P55212). Description: inhibition of CASP6 peptide cleavage – biochemical, VEID-R110 fluorescence, cherry-pick, dose response (AID 720632). The note with it: caspase-6, VEID-R110 fluorogenic substrate; at 8 µM (top of the series).
Chain of Caspase-6 (Homo sapiens) (P55212 24-179 limits assumed): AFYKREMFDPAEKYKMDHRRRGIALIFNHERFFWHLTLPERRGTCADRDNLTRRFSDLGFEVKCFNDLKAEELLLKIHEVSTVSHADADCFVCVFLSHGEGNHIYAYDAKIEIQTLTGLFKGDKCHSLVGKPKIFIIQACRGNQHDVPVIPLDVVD
Chain of Caspase-6 (Homo sapiens) (P55212 194-293 limits assumed): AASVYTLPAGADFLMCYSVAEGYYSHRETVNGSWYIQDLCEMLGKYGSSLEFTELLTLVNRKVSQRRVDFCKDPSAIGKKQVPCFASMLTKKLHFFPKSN
As to `O=C(NC[C@@H]1CC[C@@H]2[C@@H](CN2S(=O)(=O)c2ccccc2[N+](=O)[O-])O1)C1CCOCC1`, the “activity change, negative = inhibition” value was “inactive”.

Still in this test, the particulars now being: caspase-6, VEID-R110 fluorogenic substrate; at 23.5 µM (top of the series).
With `CO[C@H]1CN(C)C(=O)c2ccc(NC(=O)c3ccccc3)cc2OC[C@@H](C)N(C(=O)C2CC2)C[C@H]1C`, the “activity change, negative = inhibition” value is “inactive”.

The same test, now with this note: caspase-6, VEID-R110 fluorogenic substrate; at 26 µM (top of the series).
Take `CCC(=O)Nc1ccc2c(c1)OC[C@H](C)N(C(=O)CC)C[C@H](C)[C@H](OC)CN(C)C2=O`: the “activity change, negative = inhibition” value was “inactive”.
With `CN(C)CCNC(=O)c1cccc(S(=O)(=O)Nc2ccccc2F)c1`, the “activity change, negative = inhibition” value was “inactive”.
Same read-out and setting: as for `Cc1ccc(N2C(=O)Cc3ccccc3C2=O)cc1`, the entry is “inactive”.
`CCCC(=O)Nc1ccc2c(c1)OC[C@@H](C)NC[C@H](C)[C@H](OC)CN(C)C2=O`: the “activity change, negative = inhibition” value was “inactive”.
For the compound `CC(C)CNC(=O)c1cccc2c(-c3ccc(F)c(F)c3)coc12`, the “activity change, negative = inhibition” value is “inactive”.
With `CC1(C)COC(/C=C/c2cccc([N+](=O)[O-])c2)=N1`, the “activity change, negative = inhibition” value is “inactive”.
On to `CC(=O)N1c2ccc(S(=O)(=O)N(C)CC(=O)NCc3ccc(C)cc3)cc2CC1C` (configuration not stated), for which the “activity change, negative = inhibition” value is “inactive”.
In the case of `C#CC(C)(C)NC(=O)c1ccc(-c2ccccc2F)cc1`, the “activity change, negative = inhibition” value was “inactive”.
Regarding `C=CCNC(=O)COc1ccccc1C#N`, the “activity change, negative = inhibition” value was “inactive”.
As to `CCCC(=O)Nc1ccc2c(c1)OC[C@@H](C)N(C)C[C@@H](C)[C@H](OC)CN(C)C2=O`, the “activity change, negative = inhibition” value is “inactive”.
On to `CCCC(=O)Nc1ccc2c(c1)OC[C@@H](C)N(C(=O)CC)C[C@@H](C)[C@@H](OC)CN(C)C2=O`, for which the “activity change, negative = inhibition” value is “inactive”.
Still for that read-out and setting: as for `O=C(NC(=C(Cl)Cl)S(=O)(=O)c1ccc(Cl)cc1)c1ccccc1`, the entry is “inactive”; as for `CCOc1ccc(-c2n[nH]c(=S)n2Cc2ccccc2)cc1`, “inactive”; as for `OC[C@H]1[C@H](c2ccc(-c3ccc(F)cc3)cc2)[C@@H]2CN(Cc3cccnc3)CCCCN12`, “inactive”.
As for `COc1ccccc1NC(=O)C(C)OC(=O)CCC1CCCCC1` (configuration not stated), the “activity change, negative = inhibition” value was “inactive”.
Take `CCCN1C[C@H](C)[C@@H](OC)CN(C)C(=O)c2ccc(NC(=O)c3ccccc3)cc2OC[C@H]1C`: the “activity change, negative = inhibition” value was “inactive”.
As to `Cc1csc(=O)n1CCC(=O)OCc1nnc(-c2ccc([N+](=O)[O-])cc2)o1`, the “activity change, negative = inhibition” value was “inactive”.
`O=C(NCC(c1ccco1)N1CCc2ccccc21)c1ccc([N+](=O)[O-])cc1` (configuration not stated): the “activity change, negative = inhibition” value is “inactive”.
Turning to `COc1ccccc1C(=O)Nc1ccc2c(c1)OC[C@H](C)N(CC1CC1)C[C@@H](C)[C@@H](OC)CN(C)C2=O`, the “activity change, negative = inhibition” value is “inactive”.
As to `O=C(Nc1ccc(NC(=O)C2CC2)cc1)c1cccs1`, the “activity change, negative = inhibition” value is “inactive”.
On the same count and under the same terms, in the case of `CCCCCc1ccc(CC(=O)N2CCOCC2)cc1` it was “inactive”.
For `Cc1ccccc1NC(=O)C1CCCN(S(=O)(=O)c2cnc[nH]2)C1` (configuration not stated), the “activity change, negative = inhibition” value is “inactive”.
Regarding `CCS(=O)(=O)c1nc(S(=O)(=O)c2ccc(Cl)cc2)c(N2CCOCC2)s1`, the “activity change, negative = inhibition” value is “inactive”.
Turning to `COc1cccc(NC(=O)Cn2c(=O)n(C)c(=O)c3sc4c(c32)COC(C)(C)C4)c1`, the “activity change, negative = inhibition” value is “inactive”.
Consider `O=C(Nc1ccc2c(c1)OCCO2)C1CCCC1`, for which the “activity change, negative = inhibition” value was “inactive”.
As to `CC(C)OCCCNC(=O)c1c(N)n(CC2CCCO2)c2nc3ccccc3nc12` (configuration not stated), the “activity change, negative = inhibition” value was “inactive”.
On to `COC(=O)c1ccc(CNC(=O)COC(=O)c2ccccc2-c2ccccc2)cc1`, for which the “activity change, negative = inhibition” value is “inactive”.
For `COc1cccc(C(=O)OC(C)C(=O)NCC2CCCCC2)c1` (configuration not stated), the “activity change, negative = inhibition” value was “inactive”.
With `CC1CCCC(C)N1C(=O)C1CCCCC1` (configuration not stated), the “activity change, negative = inhibition” value is “inactive”.
As for `CCOc1ccc(NC(=O)CN(C)C(=O)c2cc(C)nc3ccccc23)cc1OCC`, the “activity change, negative = inhibition” value is “inactive”.
Consider `CC(C)(C)NC(=O)C(=O)NN=C1CCCCCCCCCCC1`, for which the “activity change, negative = inhibition” value is “inactive”.
On to `CC1CCCN(CC(O)COC(c2ccccc2)c2ccccc2)C1` (configuration not stated), for which the “activity change, negative = inhibition” value was “inactive”.
With `O=C(N/N=C/c1cccc(O)c1)c1ccccc1O`, the “activity change, negative = inhibition” value is “inactive”.
With `Fc1cccc(Nc2nc(-c3ccncc3)nc3ccccc23)c1`, the “activity change, negative = inhibition” value was “inactive”.
`COc1cc(OC)cc(C(=O)NNC(=O)CNC(=O)c2cccs2)c1`: the “activity change, negative = inhibition” value was “inactive”.
Turning to `COc1ccccc1C#Cc1ccc2c(c1)O[C@@H](CN(C)C)[C@@H](C)CN([C@@H](C)CO)S2(=O)=O`, the “activity change, negative = inhibition” value is “inactive”.
In the case of `CN(c1ccccc1)S(=O)(=O)c1cccc(C(=O)OCC(=O)Nc2ccc(C(N)=O)cc2)c1`, the “activity change, negative = inhibition” value was “inactive”.
Same read-out and setting: in the case of `CN1C(=O)CCS(=O)(=O)C1c1ccc(Cl)c(Cl)c1` (configuration not stated) it was “inactive”.
Regarding `O=C(N/N=C/c1ccc[nH]1)c1ccccc1O`, the “activity change, negative = inhibition” value is “inactive”.
Regarding `O=C(N/N=C/c1ccc([N+](=O)[O-])o1)c1ccccc1NS(=O)(=O)c1cccs1`, the “activity change, negative = inhibition” value was “inactive”.
On the same count and under the same terms, in the case of `CC1CC(C)CN(S(=O)(=O)c2ccc(F)c(C(=O)NC3CCCCC3C)c2)C1` (configuration not stated) it was “inactive”; in that of `CCCC(=O)Nc1ccc2c(c1)OC[C@@H](C)NC[C@H](C)[C@@H](OC)CN(C)C2=O`, “inactive”.
Regarding `CN1CC(=O)N2Cc3[nH]c4ccccc4c3C[C@H]2C1=O`, the “activity change, negative = inhibition” value is “inactive”.
`COc1ccc2cc(C(c3nnnn3C3CCCC3)N3CCc4ccccc4C3)c(=O)[nH]c2c1` (configuration not stated): the “activity change, negative = inhibition” value is “inactive”.
Same read-out and setting: in the case of `C[C@@H]1CN([C@@H](C)CO)C(=O)Cc2cc(N(C)C)ccc2O[C@@H]1CN(C)Cc1ccccc1` it was “inactive”; in that of `CCC1=NN(C(=O)c2ccc(Cl)cc2)C(O)(c2ccc(C)cc2)C1` (configuration not stated), “inactive”; in that of `CC(CNC(=O)c1ccc(OC2CCN(Cc3ccccn3)CC2)cc1)c1ccccc1` (configuration not stated), “inactive”.
With `COc1ccc(S(=O)(=O)Nc2ccc(O)c(Sc3ncn[nH]3)c2)cc1`, the “activity change, negative = inhibition” value is “inactive”.
The same measure, in the same setting: in the case of `N/C(Cc1cccc2ccccc12)=N\OC(=O)c1ccccc1F` it was “inactive”.
Same read-out and setting: in the case of `O=C(O)c1ccc(NS(=O)(=O)/C=C/c2ccccc2)cc1O` it was “inactive”; in that of `CCN(CC)c1c([N+](=O)[O-])c(=O)n(CC)c2ccccc12`, “inactive”.
Take `COCC(=O)Nc1ccc2c(c1)OC[C@H](C)N(CC1CC1)C[C@@H](C)[C@@H](OC)CN(C)C2=O`: the “activity change, negative = inhibition” value was “inactive”.
`CCN(CC)c1nc(N)c2c(N)nc(OC)cc2c1C#N`: the “activity change, negative = inhibition” value was “inactive”.
For `CCC(=O)Nc1ccc2c(c1)OC[C@@H](C)NC[C@@H](C)[C@@H](OC)CN(C)C2=O`, the “activity change, negative = inhibition” value was “inactive”.
Take `Nc1cc(C(Cl)=C(Cl)Cl)c(S(N)(=O)=O)cc1S(N)(=O)=O`: the “activity change, negative = inhibition” value is “inactive”.
Consider `O=C(Nc1ccc(F)cc1)c1ccccc1NC(=O)C1CC=CCC1C(=O)O` (configuration not stated), for which the “activity change, negative = inhibition” value is “inactive”.
Consider `COCC(=O)Nc1ccc2c(c1)OC[C@@H](C)N(CC1CC1)C[C@@H](C)[C@@H](OC)CN(C)C2=O`, for which the “activity change, negative = inhibition” value is “inactive”.
`Cc1cccc(C)c1OCC(=O)NCc1ccccc1`: the “activity change, negative = inhibition” value was “inactive”.
Consider `COc1ccc(NC(=O)C(F)(OC)C(F)(F)F)c(OC)c1` (configuration not stated), for which the “activity change, negative = inhibition” value is “inactive”.
With `O=C(OCC(=O)N1CCN(c2ccccc2)CC1)c1ccc([N+](=O)[O-])s1`, the “activity change, negative = inhibition” value is “inactive”.
Same read-out and setting: as for `COc1ccc(S(=O)(=O)n2cnc3ccccc32)cc1OC`, the entry is “inactive”; as for `Cc1ccc(C)c(N2N=C(C(=O)OCc3nnc(-c4ccccc4Br)o3)CCC2=O)c1`, “inactive”; as for `O=C(NCCc1ccccc1)c1cccc2c(-c3ccc(F)c(F)c3)coc12`, “inactive”.
As for `O=C(Nc1ccc(F)cc1)N1CCN(C(=O)C2CCCO2)CC1` (configuration not stated), the “activity change, negative = inhibition” value is “inactive”.
In the case of `Cc1ccc(C(=O)NCC(=O)N(C)Cc2ccccc2C)s1`, the “activity change, negative = inhibition” value was “inactive”.
Turning to `CCCN1C[C@@H](C)[C@H](OC)CN(C)C(=O)c2ccc(NC(=O)CC)cc2OC[C@@H]1C`, the “activity change, negative = inhibition” value was “inactive”.
As to `O=C(Nc1ccccc1)c1nc[nH]c1C(=O)Nc1ccccc1F`, the “activity change, negative = inhibition” value was “inactive”.
As to `Cc1ccc(C(=O)O)cc1NC(=O)c1ccc2c(c1)C(=O)N(c1ccc([N+](=O)[O-])cc1)C2=O`, the “activity change, negative = inhibition” value was “inactive”.
Still for that read-out and setting: in the case of `S=c1[nH]c2cc(Cl)c3cccnc3c2o1` it was “inactive”.
Consider `O=C(O)c1cccc(Nc2ccnc(Nc3cccc(C(=O)O)c3)n2)c1`, for which the “activity change, negative = inhibition” value is “inactive”.
Still for that read-out and setting: in the case of `CN1CCN(NC(=O)Nc2ccc(F)cc2)CC1` it was “inactive”; in that of `CO[C@@H]1CN(C)C(=O)c2ccc(NC(=O)C3CC3)cc2OC[C@H](C)N(Cc2ccccc2)C[C@@H]1C`, “inactive”.
Regarding `COc1cccc(CNC(=O)CCn2ccc3cc(S(=O)(=O)N4CCCC4)ccc32)c1`, the “activity change, negative = inhibition” value is “inactive”.
Take `CO[C@@H]1CN(C)C(=O)c2ccc(NC(=O)C3CC3)cc2OC[C@H](C)N(Cc2cccc(F)c2)C[C@@H]1C`: the “activity change, negative = inhibition” value was “inactive”.
Turning to `Cc1ccccc1CN(C)C(=O)COC(=O)CSc1ccc([N+](=O)[O-])cc1`, the “activity change, negative = inhibition” value is “inactive”.
